# Assay results from patent US9090576B2, “2-substituted-p-quinone derivatives for treatment of oxidative stress diseases” (Edison Pharmaceuticals, Inc., priority 2008, dated 2015).
# Where two headings read alike, the source gives them in different places.
# Assays:
# Type in all cases: cell-based
# [1] = tested on: Human dermal fibroblasts from Friedreich's Ataxia patients; test: Rescue of BSO-stressed FRDA fibroblasts (Calcein AM viability); settings: BSO-stressed FRDA fibroblasts (GM04078)
# Protocol: An initial screen was performed to identify compounds effective for the amelioration of redox disorders. Test samples, 4 reference compounds (Idebenone, decylubiquinone, Trolox and α-tocopherol acetate), and solvent controls were tested for their ability to rescue FRDA fibroblasts stressed by addition of L-buthionine-(S,R)-sulfoximine (BSO), as described in Jauslin et al., Hum. Mol. Genet. 11(24):3055 (2002), Jauslin et al., FASEB J. 17:1972-4 (2003), and International Patent Application WO 2004/003565. […] This specific BSO-mediated cell death can be prevented by administration of antioxidants or molecules involved in the antioxidant pathway, such as α-tocopherol, selenium, or small molecule glutathione peroxidase mimetics. However, antioxidants differ in their potency, i.e. the concentration at which they are able to rescue BSO-stressed FRDA fibroblasts.
# MEM (a medium enriched in amino acids and vitamins, catalog no. 1-31F24-I) and Medium 199 (M199, catalog no. 1-21F22-I) with Earle's Balanced Salts, without phenol red, were purchased from Bioconcept. Fetal Calf Serum was obtained from PAA Laboratories. Basic fibroblast growth factor and epidermal growth factor were purchased from PeproTech. Penicillin-streptomycin-glutamine mix, L-buthionine (S,R)-sulfoximine, (+)-α-tocopherol acetate, decylubiquinone, and insulin from bovine pancreas were purchased from Sigma. Trolox (6-hydroxy-2,5,7,8-tetramethylchromane-2-carboxylic acid) was obtained from Fluka. Idebenone was obtained from Chemo Iberica. Calcein AM was purchased from Molecular Probes. Cell culture medium was made by combining 125 ml M199 EBS, 50 ml Fetal Calf Serum, 100 U/ml penicillin, 100 μg/ml streptomycin, 2 mM glutamine, 10 μg/ml insulin, 10 ng/ml EGF, and 10 ng/ml bFGF; MEM EBS was added to make the volume up to 500 ml. A 10 mM BSO solution was prepared by dissolving 444 mg BSO in 200 ml of medium with subsequent filter-sterilization. During the course of the experiments, this solution was stored at +4° C. The cells were obtained from the Coriell Cell Repositories (Camden, N.J.; repository number GM04078) and grown in 10 cm tissue culture plates. Every third day, they were split at a 1:3 ratio.
# The test samples were supplied in 1.5 ml glass vials. The compounds were diluted with DMSO, ethanol or PBS to result in a 5 mM stock solution. Once dissolved, they were stored at −20° C. Reference antioxidants (Idebenone, decylubiquinone, α-tocopherol acetate and trolox) were dissolved in DMSO.
# Test samples were screened according to the following protocol:
# (§1) A culture with FRDA fibroblasts was started from a 1 ml vial with approximately 500,000 cells stored in liquid nitrogen. Cells were propagated in 10 cm cell culture dishes by splitting every third day in a ratio of 1:3 until nine plates were available. Once confluent, fibroblasts were harvested. For 54 micro titer plates (96 well-MTP) a total of 14.3 million cells (passage eight) were re-suspended in 480 ml medium, corresponding to 100 μl medium with 3,000 cells/well. The remaining cells were distributed in 10 cm cell culture plates (500,000 cells/plate) for propagation. The plates were incubated overnight at 37° C. in an atmosphere with 95% humidity and 5% CO2 to allow attachment of the cells to the culture plate.
# (§2) MTP medium (243 μl) was added to a well of the microtiter plate. The test compounds were unfrozen, and 7.5 μl of a 5 mM stock solution was dissolved in the well containing 243 μl medium, resulting in a 150 μM master solution. Serial dilutions from the master solution were made. The period between the single dilution steps was kept as short as possible (generally less than 1 second).
# Plates were kept overnight in the cell culture incubator. The next day, 10 μl of a 10 mM BSO solution were added to the wells, resulting in a 1 mM final BSO concentration. Forty-eight hours later, three plates were examined under a phase-contrast microscope to verify that the cells in the 0% control (wells E1-H1) were clearly dead. […]
# [2] = tested on: human dermal fibroblasts from LHON patients; test: Rescue of BSO-stressed fibroblasts from LHON patients (screen as Example A); settings: Fibroblast, BSO-stressed LHON fibroblasts (GM03858), less than about 150 nM, read-out: EC50, protection against LHON
# Protocol: as §1, §2
# (§3) Plates were kept overnight in the cell culture incubator. The next day, 10 μl of a 10 mM BSO solution were added to the wells, resulting in a 1 mM final BSO concentration. Forty-eight hours later, three plates were examined under a phase-contrast microscope to verify that the cells in the 0% control (wells E1-H1) were clearly dead. The medium from all plates was discarded, and the remaining liquid was removed by gently tapping the plate inversed onto a paper towel.
# (§4) 100 μl of PBS containing 1.2 μM Calcein AM were then added to each well. The plates were incubated for 50-70 minutes at room temperature. After that time the PBS was discarded, the plate gently tapped on a paper towel and fluorescence (excitation/emission wavelengths of 485 nm and 525 nm, respectively) was read on a Gemini fluorescence reader. Data was imported into Microsoft Excel (EXCEL is a registered trademark of Microsoft Corporation for a spreadsheet program) and used to calculate the EC50 concentration for each compound.
# (§5) Compounds of the invention were screened as described in Example A, but substituting FRDA cells with Leber's Hereditary Optic Neuropathy (LHON) cells obtained from the Coriell Cell Repositories (Camden, N.J.; repository number GM03858). The compounds were tested for their ability to rescue human dermal fibroblasts from LHON patients from oxidative stress.
# [3] = tested on: human dermal fibroblasts from Huntington's patients; test: Rescue of BSO-stressed fibroblasts from Huntington's patients (screen as Example A); settings: Fibroblast, BSO-stressed Huntington's fibroblasts (GM 04281), less than about 150 nM, read-out: EC50, protection against Huntington's
# Protocol: as §1, §2, §3, §4
# as §5, with “tested using the screen” for “screened”, “Huntington's” for “Leber's Hereditary Optic Neuropathy (LHON)”, “GM 04281).” for “GM03858).”, “Huntington's” for “LHON”
# [4] = less than about 150 nM, read-out: EC50, protection against FRDA
# [5] = 1 mM BSO, 48 h, first of three experiments, read-out: EC50 Value 1
# [6] = 1 mM BSO, 48 h, second of three experiments, read-out: EC50 Value 2
# [7] = 1 mM BSO, 48 h, third of three experiments, read-out: EC50 Value 3
# [8] = average of three experiments, read-out: EC50 Average
compound,measurement,setting,value
"CC1=C(C)C(=O)C(CCC(C)C(=O)N2CCC(O)CC2)=C(C)C1=O (centres unmarked) [2-(4-(4-hydroxypiperidin-1-yl)-3-methyl-4-oxobutyl)-3,5,6-trimethylcyclohexa-2,5-diene-1,4-dione]",EC50,[1]; [4],< 150 nM
"CC1=C(C)C(=O)C(CCNC(=O)N2CCCCC2)=C(C)C1=O [N-(2-(2,4,5-trimethyl-3,6-dioxocyclohexa-1,4-dienyl)ethyl)piperidine-1-carboxamide]",EC50,[1]; [4],< 150 nM
"CC1=C(C)C(=O)C(CCNC(=O)c2cccnc2)=C(C)C1=O [N-(2-(2,4,5-trimethyl-3,6-dioxocyclohexa-1,4-dienyl)ethyl)nicotinamide]",EC50,[2],< 150 nM
"CC1=C(C)C(=O)C(CCCC(=O)N2CCN(C(=O)C3CCCCC3)CC2)=C(C)C1=O [2-(4-(4-(cyclohexanecarbonyl)piperazin-1-yl)-4-oxobutyl)-3,5,6-trimethylcyclohexa-2,5-diene-1,4-dione]",EC50,[2],< 150 nM
"CC1=C(C)C(=O)C(CCCC(=O)NCCc2ccccn2)=C(C)C1=O [N-(2-(pyridin-2-yl)ethyl)-4-(2,4,5-trimethyl-3,6-dioxocyclohexa-1,4-dienyl)butanamide]",EC50,[3],< 150 nM
same,EC50,[2],< 150 nM
"CC1=C(C)C(=O)C(CCNC(=O)N2CCC(O)CC2)=C(C)C1=O [4-hydroxy-N-(2-(2,4,5-trimethyl-3,6-dioxocyclohexa-1,4-dienyl)ethyl)piperidine-1-carboxamide]",EC50,[2],< 150 nM
"CCCCCC(=O)NCCC1=C(CCC(C)(C)O)C(=O)C(C)=C(C)C1=O [N-(2-(2-(3-Hydroxy-3-methylbutyl)-4,5-dimethyl-3,6-dioxocyclohexa-1,4-dienyl)ethyl)hexanamide]",EC50,[3],< 150 nM
same,EC50,[2],< 150 nM
"CC1=C(C)C(=O)C(CCC(C)C(=O)N2CCC(F)CC2)=C(C)C1=O (centres unmarked) [2-(4-(4-fluoropiperidin-1-yl)-3-methyl-4-oxobutyl)-3,5,6-trimethylcyclohexa-2,5-diene-1,4-dione]",EC50,[3],< 150 nM
same,EC50,[2],< 150 nM
"CCCCCCCCCCC1=C(C)C(=O)C(OC)=C(OC)C1=O [Decylubiquinone, decylubiquinone, reference compound]",EC50,[1]; [5],50 nM
same,EC50,[1]; [6],35 nM
same,EC50,[1]; [7],30 nM
same,EC50,[1]; [8],38 nM
"COC1=C(OC)C(=O)C(CCCCCCCCCCO)=C(C)C1=O [Idebenone, reference compound]",EC50,[1]; [5],1500 nM
same,EC50,[1]; [6],1000 nM
same,EC50,[1]; [7],1000 nM
same,EC50,[1]; [8],1200 nM
"Cc1c(C)c2c(c(C)c1O)CCC(C)(C(=O)O)O2 (centres unmarked) [Trolox, 6-hydroxy-2,5,7,8-tetramethylchromane-2-carboxylic acid, reference compound]",EC50,[1]; [5],9000 nM
same,EC50,[1]; [6],9000 nM
same,EC50,[1]; [7],8000 nM
same,EC50,[1]; [8],8700 nM
"CCCNC(=O)C(C)CCC1=C(C)C(=O)C(C)=C(C)C1=O (centres unmarked) [2-methyl-N-propyl-4-(2,4,5-trimethyl-3,6-dioxocyclohexa-1,4-dienyl)butanamide]",EC50,[3],< 150 nM
"CC1=C(C)C(=O)C(CCNC(=O)C(O)c2ccc(Cl)cc2)=C(C)C1=O (centres unmarked) [2-(4-chlorophenyl)-2-hydroxy-N-(2-(2,4,5-trimethyl-3,6-dioxocyclohexa-1,4-dienyl)ethyl)acetamide]",EC50,[3],< 150 nM
same,EC50,[2],< 150 nM
"CC(=O)Oc1c(C)c(C)c2c(c1C)CCC(C)(CCC[C@H](C)CCC[C@H](C)CCCC(C)C)O2 (stereo partly drawn) [alpha-Tocopherol acetate, (+)-α-tocopherol acetate, reference compound]",EC50,[1]; [5],400 nM
same,EC50,[1]; [6],150 nM
same,EC50,[1]; [7],350 nM
same,EC50,[1]; [8],300 nM
"CC1=C(C)C(=O)C(CCNC(=O)C(O)c2ccccc2)=C(C)C1=O (centres unmarked) [2-hydroxy-2-phenyl-N-(2-(2,4,5-trimethyl-3,6-dioxocyclohexa-1,4-dienyl)ethyl)acetamide]",EC50,[1]; [4],< 150 nM
same,EC50,[2],< 150 nM
"CC(=O)N1CCN(C(=O)NCCC2=C(C)C(=O)C(C)=C(C)C2=O)CC1 [4-acetyl-N-(2-(2,4,5-trimethyl-3,6-dioxocyclohexa-1,4-dienyl)ethyl)piperazine-1-carboxamide]",EC50,[3],< 150 nM
same,EC50,[2],< 150 nM
"CC1=C(C)C(=O)C(CCCC(=O)N2CCN(C(=O)c3ccccc3)CC2)=C(C)C1=O [2-(4-(4-benzoylpiperazin-1-yl)-4-oxobutyl)-3,5,6-trimethylcyclohexa-2,5-diene-1,4-dione]",EC50,[2],< 150 nM
"CCNC(=O)NCCC1=C(C)C(=O)C(C)=C(c2ccc(Cl)cc2)C1=O [1-(2-(5-(4-chlorophenyl)-2,4-dimethyl-3,6-dioxocyclohexa-1,4-dienyl)ethyl)-3-ethylurea]",EC50,[1]; [4],< 150 nM
same,EC50,[2],< 150 nM
"CC1=C(C)C(=O)C(CCC(C)C(N)=O)=C(C)C1=O (centres unmarked) [2-methyl-4-(2,4,5-trimethyl-3,6-dioxocyclohexa-1,4-dienyl)butanamide]",EC50,[2],< 150 nM
"CC1=C(C)C(=O)C(CCCC(=O)N2CCC(F)(F)CC2)=C(C)C1=O [2-(4-(4,4-difluoropiperidin-1-yl)-4-oxobutyl)-3,5,6-trimethylcyclohexa-2,5-diene-1,4-dione]",EC50,[2],< 150 nM
"CC1=C(C)C(=O)C(CCCC(=O)N2CCCC2)=C(C)C1=O [2,3,5-trimethyl-6-(4-oxo-4-(pyrrolidin-1-yl)butyl)cyclohexa-2,5-diene-1,4-dione]",EC50,[1]; [4],< 150 nM
"CC1=C(C)C(=O)C(CCCC(=O)N2CCC(F)CC2)=C(C)C1=O [2-(4-(4-fluoropiperidin-1-yl)-4-oxobutyl)-3,5,6-trimethylcyclohexa-2,5-diene-1,4-dione]",EC50,[2],< 150 nM
"CCNC(=O)N(C)CCC1=C(C)C(=O)C(C)=C(C)C1=O [3-Ethyl-1-methyl-1-(2-(2,4,5-trimethyl-3,6-dioxocyclohexa-1,4-dienyl)ethyl)urea]",EC50,[1]; [4],< 150 nM
"CC1=C(CCNC(=O)C2CCC(F)(F)CC2)C(=O)C(c2ccc(Cl)cc2)=C(C)C1=O [N-(2-(5-(4-chlorophenyl)-2,4-dimethyl-3,6-dioxocyclohexa-1,4-dienyl)ethyl)-4,4-difluorocyclohexanecarboxamide]",EC50,[1]; [4],< 150 nM
same,EC50,[2],< 150 nM
